Test results: US20130045969A1, “PLANT DISEASE CONTROLLING COMPOSITION AND METHOD FOR CONTROLLING PLANT DISEASE” (SUMITOMO CHEMICAL COMPANY, LIMITED, priority 2010, published 2013)

Tested on: gray mold fungus (Botrytis cinerea)
Experiment: Cucumber leaf disk preventive test against gray mold
Format: in vivo
Details: single compound, 15° C., four days
Protocol: True leaf of cucumber is punched out with cork borer to 13 mm in diameter to prepare a leaf disk. In 24 well microwell plate that is dispensed with 1 ml 0.8% water agar, the leaf disk is placed such that the upper side of the leaf is in an upward direction. Thereto is added 20 micro liter a testing solution prepared by mixing a dimethyl sulfoxide solution of the present compound (racemate) and a dimethyl sulfoxide solution of trifloxystrobin or pyribencarb to a predetermined concentration to treat the leaf disk. After confirming that the testing medical solution is dried, conidium of gray mold fungus (Botrytis cinerea) is suspended into potato dextrose broth (DIFCO) in a density of about 10^5 conidium/mL and is then subjected to a spray inoculation. After leaving to stand the leaf disk in a growth chamber set up at 15° C. for four days, an onset area on the leaf is measured and then calculated an onset area rate (hereinafter, referred to as an onset area rate of treated group). The same operation is carried out with 20 micro liter water instead of 20 micro liter a testing medicine solution to calculate an onset area rate (hereinafter, referred to an onset area rate of non-treated group). A preventive value is calculated from the above onset area rate of treated group and the onset area rate of non-treated group by the following equation: Preventive value (%)=100×(A−B)/A […] The same operations as described in Test Example 1 are carried out with azoxystrobin, dimoxystrobin, fluoxastrobin, kresoxim-methyl, metominostrobin, orysastrobin, picoxystrobin or pyraclostrobin instead of trifloxystrobin or pyribencarb, so as to calculate respective preventive values. Also for comparison, the same operations as described in Test Example 1 are carried out with the exception that the testing medicine solution is substituted with a predetermined concentration of each dimethyl sulfoxide solution of the present compound (racemate), azoxystrobin, dimoxystrobin, fluoxastrobin, kresoxim-methyl, metominostrobin, orysastrobin, picoxystrobin or pyraclostrobin, so as to calculate respective preventive values. For comparison, the same operations as described in Test Example 1 are carried out with the exception that the testing medicine solution is substituted with a predetermined concentration of each dimethyl sulfoxide solution of trifloxystrobin or pyribencarb, so as to calculate respective preventive values.

[1] = treatment concentration 0.5 ppm
[2] = treatment concentration 5.0 ppm

| SMILES | preventive value (%) [1] [%] | preventive value (%) [2] [%] |
| --- | --- | --- |
| CNC(=O)/C(=N/OC)c1ccccc1CO/N=C(C)/C(=N/OC)C(/C)=N/OC [orysastrobin] | 10 | 25 |
| CO/N=C(/C1=NOCCO1)c1ccccc1Oc1ncnc(Oc2ccccc2Cl)c1F [fluoxastrobin] | 43 | 52 |
| CNC(=O)/C(=N/OC)c1ccccc1Oc1ccccc1 [metominostrobin] | 10 | 20 |
| CO/C=C(/C(=O)OC)c1ccccc1COc1cccc(C(F)(F)F)n1 [picoxystrobin] | 10 | 30 |
| COC(=O)N(OC)c1ccccc1COc1ccn(-c2ccc(Cl)cc2)n1 [pyraclostrobin] | 15 | 35 |
| CO/N=C(/C(=O)OC)c1ccccc1COc1ccccc1C [kresoxim-methyl] | 47 | 52 |
| COC(=O)NCc1cc(/C(C)=N/OCc2cccc(C)n2)ccc1Cl [pyribencarb] | 42 | 58 |
| CNC(=O)/C(=N/OC)c1ccccc1COc1cc(C)ccc1C [dimoxystrobin] | 48 | 57 |
| CO/C=C(/C(=O)OC)c1ccccc1Oc1cc(Oc2ccccc2C#N)ncn1 [azoxystrobin] | 43 | 53 |
| CON=C(C(=O)OC)c1ccccc1CON=C(C)c1cccc(C(F)(F)F)c1 [trifloxystrobin] | 10 | 20 |
